System: mice subjected to the forced swim test
Test: Forced swim test on mice (duration of immobility)
Format: in vivo, Swiss white mice
Conditions: for Duration of immobility in seconds during the last four minutes of the six minute period: 20 minutes before test, N=4; for Activity in reducing immobility time compared with control (in words): 40 mg/Kg; for Percentage decrease in immobility times for dosage of 40 mg/kg: 40 mg/kg i.p.; for Percentage decrease in immobility times for dosage of 40 mg/kg / Percentage decrease in immobility times for dosage of 80 mg/kg: versus control; for Percentage decrease in immobility times for dosage of 80 mg/kg: 80 mg/kg i.p.
Source text: The antidepressant compounds can be used to treat depression. […] As exemplified in such technical articles as I Weiner et al., “A comparison of drug effects in latent inhibition and the forced swim test differentiates between the typical antipsychotic haloperidol, the atypical antipsychotics clozapine and olanzapine, and the antidepressants imipramine and paroxetine”, Behavioural Pharmacology (2003), Vol. 14, pp. 215-22, and D. A. Slattery et al., “Using the rat forced swim test to assess antidepressant-like activity in rodents”, Nature Protocols (2012), Vol. 7, pp. 1009-1014, the forced swim test is recognized in the pharmacological art as a standard test protocol for assessing antidepressant-like behavior induced by antidepressant compounds. The forced swimming test measures the duration of immobility of rodents exposed to the threat of drowning. Mice normally swim for 1-2 minutes and then turn helpless and become immobile. […] For example, the mouse may appear to float, i.e. almost immobile and with its head above water. The majority of known antidepressant drugs decrease the duration of immobility.
To test for the presence of anti-depressant activity of the test compounds 3, 4, 5 and 6, the forced swim test was conducted on mice. The forced swimming test was conducted generally in accordance with the procedures set forth in David, D. J. P. et al., Psychopharmacology (2003), 166, 373-382, with the exception of a slight modification in the dimensions of the vessel used as a swimming pool. The vessel was a glass cylinder having an internal diameter of 25 cm and included water having a depth of 15 cm and a temperature of about 22±2° C. Swiss white mice weighing 25 g each were divided into 17 groups (N=4). One group served as control and the others divided for each test compound.
The test compounds were dissolved in DMSO and administered in 4 dose levels of 10, 20, 40, 80 mg/kg, respectively, intraperitoneally (“i.p.”). The antidepressant compounds were administered to the mice 20 minutes before starting the swimming test. The control group was administered the vehicle only, in the same volume. Each mouse was allowed to stay in the swimming pool for 6 minutes. The duration of the period of immobility was measured at the beginning of the third minute of placing the mouse into the swimming pool and ended by the end of the sixth minute. In other words, the duration of immobility observed only during the last four minutes was recorded. For each test compound dose, the time of immobility was calculated and then averaged.

[1] = 40 mg/kg i.p. in DMSO, * P<0.05 compared with control
[2] = 80 mg/kg i.p. in DMSO, * P<0.05 compared with control

SMILES	Duration of immobility in seconds during the last four minutes of the six minute period (10 mg/kg i.p. in DMSO) [s]	Duration of immobility in seconds during the last four minutes of the six minute period (20 mg/kg i.p. in DMSO) [s]	Duration of immobility in seconds during the last four minutes of the six minute period [1]	Duration of immobility in seconds during the last four minutes of the six minute period [2]	Activity in the forced swim test (in words) (all doses tested (10, 20, 40, 80 mg/kg i.p.))	Activity in reducing immobility time compared with control (in words) (p<0.05, N=4)	Percentage decrease in immobility times for dosage of 40 mg/kg [%]	Activity compared with compound 3 (in words) (80 mg/kg dosage, p<0.05, N=4)	Immobility time compared with the control (in words) (80 mg/kg dosage, p<0.05, N=4)	Percentage decrease in immobility times for dosage of 80 mg/kg [%]
O=CC1CC2c3c(Cl)cccc3C1c1cccc(Cl)c12 (stereo not shown) [Compound 4, 1,8-dichloro-9,10-dihydro-9,10-ethanoanthracene-11-carbaldehyde]	240	240	240 s	240 s	completely inactive	–	–	–	–	–
CNCC1CC2c3cccc(Cl)c3C1c1c(Cl)cccc12 (stereo not shown) [Compound 5]	240	200 ± 12.3	140 ± 7.9* seconds	36 ± 4.9* seconds	–	significantly active in reducing immobility time	37.8	significantly more active than compound 3	significant decrease in immobility time	84.0
O=CC1CC2c3cccc(Cl)c3C1c1c(Cl)cccc12 (stereo not shown) [Compound 3, 4,5-dichloro-9,10-dihydro-9,10-ethanoanthracene-11-carbaldehyde]	240	240	160 ± 11* seconds	65 ± 4* seconds	–	significantly active in reducing immobility time	28.9	–	significant decrease in immobility time	71.1
